According to patent publication US9284315B2, “Three-ring PI3K and/or mTOR inhibitor” (XUANZHU PHARMA CO., LTD., priority 2011, dated 2016):

Legend:
mTOR = mTOR (Homo sapiens (Human), UniProt P42345); assay: biochemical; assay type: binding
in vivo [1] = details: male, SD, rat, iv, 2 mg/kg
in vivo [2] = details: male, SD, rat, po, 4 mg/kg
PI3Kα = PI3Kα (Homo sapiens (Human), UniProt P42336); assay: biochemical; assay type: binding
[3] = male, SD, rat, in vivo, iv, 2 mg/kg

Sequence of PI3Kα (P42336 whole entry): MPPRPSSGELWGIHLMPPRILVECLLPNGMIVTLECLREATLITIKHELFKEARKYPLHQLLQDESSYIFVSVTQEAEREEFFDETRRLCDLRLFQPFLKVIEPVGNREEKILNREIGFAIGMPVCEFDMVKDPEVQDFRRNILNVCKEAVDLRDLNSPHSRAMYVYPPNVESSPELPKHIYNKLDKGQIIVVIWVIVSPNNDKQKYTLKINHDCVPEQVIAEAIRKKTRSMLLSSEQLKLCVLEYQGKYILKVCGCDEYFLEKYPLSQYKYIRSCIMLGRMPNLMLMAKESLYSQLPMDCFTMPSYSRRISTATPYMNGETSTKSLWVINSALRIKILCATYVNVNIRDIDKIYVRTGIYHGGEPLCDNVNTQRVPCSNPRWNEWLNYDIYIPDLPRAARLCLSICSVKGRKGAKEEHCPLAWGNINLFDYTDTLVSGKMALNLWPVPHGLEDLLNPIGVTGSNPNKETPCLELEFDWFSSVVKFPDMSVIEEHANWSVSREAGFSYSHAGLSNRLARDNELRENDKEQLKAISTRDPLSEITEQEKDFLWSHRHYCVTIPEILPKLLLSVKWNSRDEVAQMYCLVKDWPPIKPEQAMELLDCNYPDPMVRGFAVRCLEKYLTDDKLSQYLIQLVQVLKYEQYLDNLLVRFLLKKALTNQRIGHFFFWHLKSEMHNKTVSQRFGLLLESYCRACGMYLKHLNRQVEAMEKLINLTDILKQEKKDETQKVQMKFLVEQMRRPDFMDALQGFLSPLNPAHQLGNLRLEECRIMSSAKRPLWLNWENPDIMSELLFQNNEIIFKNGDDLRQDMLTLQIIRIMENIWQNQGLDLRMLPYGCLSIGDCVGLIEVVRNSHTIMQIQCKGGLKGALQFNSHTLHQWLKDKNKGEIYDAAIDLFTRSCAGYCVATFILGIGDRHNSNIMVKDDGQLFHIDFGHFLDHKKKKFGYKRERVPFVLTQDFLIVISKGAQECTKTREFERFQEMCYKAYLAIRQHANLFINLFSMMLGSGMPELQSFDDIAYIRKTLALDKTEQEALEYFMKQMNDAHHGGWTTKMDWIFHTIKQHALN
Sequence of PI3Kα (P27986 whole entry partner): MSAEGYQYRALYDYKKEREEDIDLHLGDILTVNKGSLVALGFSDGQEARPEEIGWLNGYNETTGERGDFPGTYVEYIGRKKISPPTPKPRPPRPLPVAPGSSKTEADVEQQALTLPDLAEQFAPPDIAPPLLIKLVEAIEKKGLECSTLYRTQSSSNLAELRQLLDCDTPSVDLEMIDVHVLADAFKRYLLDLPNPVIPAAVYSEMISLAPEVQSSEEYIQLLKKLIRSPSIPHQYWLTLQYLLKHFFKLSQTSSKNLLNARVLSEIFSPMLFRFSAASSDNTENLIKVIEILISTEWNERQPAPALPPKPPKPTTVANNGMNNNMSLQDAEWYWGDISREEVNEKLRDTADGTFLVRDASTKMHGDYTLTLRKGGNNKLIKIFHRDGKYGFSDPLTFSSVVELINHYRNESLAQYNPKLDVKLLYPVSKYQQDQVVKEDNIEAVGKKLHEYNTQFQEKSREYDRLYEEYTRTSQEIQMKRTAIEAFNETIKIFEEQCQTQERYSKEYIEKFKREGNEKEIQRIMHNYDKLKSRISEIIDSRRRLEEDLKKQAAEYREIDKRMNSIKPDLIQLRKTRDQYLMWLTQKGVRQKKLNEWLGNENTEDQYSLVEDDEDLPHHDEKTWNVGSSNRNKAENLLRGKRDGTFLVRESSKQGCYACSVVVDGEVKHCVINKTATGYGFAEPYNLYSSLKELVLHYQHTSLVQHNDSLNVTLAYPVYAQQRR

Row | SMILES | IC50 (mTOR) | AUC (in vivo [1]) | half-life (in vivo [1]) | AUC (in vivo [2]) | Cmax (in vivo [2]) | Tmax (in vivo [2]) | bioavailability (in vivo [2]) | half-life (in vivo [2]) | IC50 (PI3Kα) | Cl_obs [3] | Vss_obs [3]
1 | COc1ccc(-c2ccc3ncc4c(c3n2)N(C2CCN(C(=O)[C@@H](C)O)CC2)C(=O)N(C)C4)cn1 [Compound 86, (R)-1-(1-(2-hydroxypropanoyl)piperidin-4-yl)-9-(6-methoxypyridin-3-yl)-3-methyl-3,4-dihydropyrimido[5,4-c][1,5]naphthyridin-2(1H)-one] | 257 nM | 154 ng·h/mL | 12 min | 177 ng·h/mL | 251 ng/mL | 19.8 min | 58% | 62.4 min | 9.7 nM | 227 mL/min/kg | 3.58 L/kg
2 | COc1ccc(-c2ccc3ncc4c(c3n2)N(C2CCNCC2)C(=O)N(C)C4)cn1 [Compound 114] | 732 nM | – | – | – | – | – | – | – | 115 nM | – | –
